This assay addresses T1, hr‐granzyme B (Homo sapiens, UniProt P10144).
T1 construct: in the absence and presence of active human recombinant (hr)‐granzyme B
The experiment in a line: Time-course signal-to-noise ratios after reaction with granzyme B. Type of assay: biochemical. The settings on record: Ac-IEPD-AMC 25 μM, hr-granzyme B 20 nM, aqueous buffer 37 °C, fluorescence 450 nm, over 30 minutes; mean ± SEM, n=6. The method, then:
In vitro characterisation assays. Enzymatic assays were run in a 384-well format in a PCR opaque microplate (Thermo Scientific). All experiments were performed at least in triplicate. Dilutions and reactions using human GZM B and human neutrophil elastase were prepared in 50 mM Tris-HCl and 100 mM NaCl (pH 7.4). GZM A assays were performed in 25 mM HEPES, 0.1% CHAPS and 10 mM DTT (pH 7.5). Dilutions and incubations with CASP8 and CASP9 were prepared in 50 mM HEPES, 100 mM NaCl, 0.1% Triton X-100, 10 mM DTT, 1 mM EDTA and 10% glycerol (pH 7.4). Any other tested biomolecules were prepared in PBS. Proteolytic activity was determined by calculating the fold change in chemiluminescence signal (or fluorescence signal in the case of Ac - IEPD-AMC) over background signal provided by the corresponding dilution of the probes with the enzyme using a spectrophotometer (Synergy H1 Hybrid Reader, BioTek) at 37°C.
Unless otherwise stated, probes were utilized at a concentration of 100 μM. Enzyme concentration used: 20 nM (except CASP9, which was used at 200 nM) and all other biomolecules were tested at 100 μM. In the case where an inhibitor was used, the enzyme was pre-incubated for 1 h with the inhibitor (100 µM) before addition of probe 1.
Cell culture. […]

Where a SMILES comes first, the peptide text is derived from it. The star is where a group is joined. AMC = Cc1cc(=O)oc2cc(N*)ccc12

Experimental findings from paper PMC7986153, “A Functional Chemiluminescent Probe for in Vivo Imaging of Natural Killer Cell Activity Against Tumours” (Angewandte Chemie (International Ed. in English), 2021) are described below.

T1 sequence (P10144 21-247): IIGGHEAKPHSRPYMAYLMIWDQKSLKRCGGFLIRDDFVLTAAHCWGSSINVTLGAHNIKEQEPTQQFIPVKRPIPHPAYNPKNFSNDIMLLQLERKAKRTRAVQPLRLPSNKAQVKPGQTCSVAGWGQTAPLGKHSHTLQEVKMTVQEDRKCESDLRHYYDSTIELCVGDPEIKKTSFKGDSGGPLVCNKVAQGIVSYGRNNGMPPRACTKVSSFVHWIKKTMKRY

For `CC[C@H](C)[C@H](NC(C)=O)C(=O)N[C@@H](CCC(=O)O)C(=O)N1CCC[C@H]1C(=O)N[C@@H](CC(=O)O)C(=O)Nc1ccc2c(C)cc(=O)oc2c1` [Ac‐IEPD‐AMC] (Ac-IEPD-{AMC}), the “Signal‐to‐noise (S/N) ratio” value is recorded as “under 5”.
